This experiment deals with T1, Full-length glucokinase (beta cell isoform) (Homo sapiens, UniProt P35557).
T1 construct: Full-length glucokinase (beta cell isoform) was His-tagged at N-terminus; His tag (N); made in house
T1 sequence (P35557 1-465): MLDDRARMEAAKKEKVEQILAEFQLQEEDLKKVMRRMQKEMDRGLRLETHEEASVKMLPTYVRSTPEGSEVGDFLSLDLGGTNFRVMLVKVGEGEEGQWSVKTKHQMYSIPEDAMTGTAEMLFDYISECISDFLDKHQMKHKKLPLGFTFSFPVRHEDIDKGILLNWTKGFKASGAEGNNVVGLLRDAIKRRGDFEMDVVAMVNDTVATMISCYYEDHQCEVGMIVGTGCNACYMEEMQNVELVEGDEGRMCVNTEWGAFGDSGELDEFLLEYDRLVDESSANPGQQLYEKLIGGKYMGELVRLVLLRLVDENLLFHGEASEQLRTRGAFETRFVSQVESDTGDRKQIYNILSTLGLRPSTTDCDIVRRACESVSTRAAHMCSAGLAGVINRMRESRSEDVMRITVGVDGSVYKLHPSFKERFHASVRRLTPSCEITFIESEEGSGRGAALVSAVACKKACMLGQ
In words: Glucokinase biochemical assay (PK/LDH-coupled, NADH depletion at 340 nm): % activation, EC50, % max activation. As to conditions: 5 mM glucose; for activation at 10 µM: 10 uM compound, % Activation=(Va/Vo−1)×100, read-out: % Activation at 10 uM; for EC50: GK activation, read-out: EC50; for Emax: fitted maximum activation, read-out: % Max Activation. In a few lines:
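Activation expressed as (Va/Vo−1)×100, where initial rates with and without compound come from NADH depletion at 340 nm over 200–900 s. Enzyme is His-tagged human beta-cell GK, full length, run at room temperature in HEPES buffer with 1 mM ATP and 5 mM glucose. DMSO 1%.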

By EC50 is commonly meant the concentration giving half of the maximal effect.

Where only a bound is given, the exact number is not on record here.

Turning to `Cn1ccc(NC(=O)c2cc(Oc3ccc(S(C)(=O)=O)cc3)c3c(c2)OC(C)(CF)C3)n1` (centres unmarked) [Example 251, 2-Fluoromethyl-4-(4-methanesulfonyl-phenoxy)-2-methyl-2,3-dihydro-benzofuran-6-carboxylic acid (1-methyl-1H-pyrazol-3-yl)-amide], the activation at 10 µM was found to be 141%, the concentration for a half-maximal effect (EC50) came out at 430 nM and the Emax was found to be 169%.
With `Cc1ccc(NC(=O)c2cc(Oc3ccc(S(C)(=O)=O)cc3)c3cc(C)oc3c2)nc1` [Example 252, 2-Methyl-N-(5-methylpyridin-2-yl)-4-(4-(methylsulfonyl)-phenoxy)-benzofuran-6-carboxamide], the activation at 10 µM was found to be 108%, the EC50 amounted to 778 nM and the Emax is 107%.
Regarding `Cc1cc2c(Oc3ccc(S(C)(=O)=O)cc3)cc(C(=O)Nc3ccc(C(F)(F)F)cn3)cc2o1` [Example 253, 2-Methyl-4-(4-(methylsulfonyl)phenoxy)-N-(5-(trifluoromethyl)-pyridin-2-yl)benzofuran-6-carboxamide], the activation at 10 µM was determined as 32.1%.
Take `Cc1cc2c(Oc3ccc(S(C)(=O)=O)cc3)cc(C(=O)Nc3ccc4c(n3)CCC4)cc2o1` [Example 254, N-(6,7-Dihydro-5H-cyclopenta[b]pyridin-2-yl)-2-methyl-4-(4-(methylsulfonyl)-phenoxy)benzofuran-6-carboxamide]: the activation at 10 µM was 53.3%, the half-maximal effective concentration (EC50) is 3400 nM and the Emax is 71%.
Consider `Cc1cc(NC(=O)c2cc(Oc3ccc(S(C)(=O)=O)cc3)c3cc(C)oc3c2)no1` [Example 255, 2-Methyl-N-(5-methylisoxazol-3-yl)-4-(4-(methylsulfonyl)-phenoxy)-benzofuran-6-carboxamide], for which the activation at 10 µM turned out to be 18.8%.
In the case of `Cc1cc2c(Oc3ccc(S(C)(=O)=O)cc3)cc(C(=O)Nc3ccc(F)cn3)cc2o1` [Example 256, N-(5-Fluoropyridin-2-yl)-2-methyl-4-(4-(methylsulfonyl)-phenoxy)benzofuran-6-carboxamide], the activation at 10 µM worked out at 89.2%, the half-maximal effective concentration (EC50) amounted to 4500 nM and the Emax came to 126%.
Taken in the same sequence, the figures for `Cc1cc2c(Oc3ccc(S(C)(=O)=O)cc3)cc(C(=O)Nc3ccccn3)cc2o1` [Example 257, 2-Methyl-4-(4-(methylsulfonyl)phenoxy)-N-(pyridin-2-yl)-benzofuran-6-carboxamide] were 111%, 1400 nM and 119%.
Taken in the same sequence, the figures for `Cc1cc2c(Oc3ccc(S(C)(=O)=O)cc3)cc(C(=O)Nc3ccon3)cc2o1` [Example 258, N-(Isoxazol-3-yl)-2-methyl-4-(4-(methylsulfonyl)phenoxy)-benzofuran-6-carboxamide] were 99.7%, 5800 nM and 142%.
For the compound `COc1ccnc(NC(=O)c2cc(Oc3ccc(S(C)(=O)=O)cc3)c3cc(C)oc3c2)c1` [Example 259, N-(4-Methoxypyridin-2-yl)-2-methyl-4-(4-(methylsulfonyl)-phenoxy)-benzofuran-6-carboxamide], the activation at 10 µM was found to be 63.6%, the concentration giving a half-maximal response (EC50) stood at 1000 nM and the Emax came out at 60%.
Taken in the same sequence, the figures for `Cc1cc2c(Oc3ccc(S(C)(=O)=O)cc3)cc(C(=O)Nc3ccc(Cl)cn3)cc2o1` [Example 260, N-(5-chloropyridin-2-yl)-2-methyl-4-(4-(methylsulfonyl)-phenoxy)benzofuran-6-carboxamide] were 53.1%, 2900 nM and 69%.
In the case of `Cc1cc2c(Oc3ccc(S(C)(=O)=O)cc3)cc(C(=O)Nc3ccc(C#N)cn3)cc2o1` [Example 261, N-(5-cyanopyridin-2-yl)-2-methyl-4-(4-(methylsulfonyl)-phenoxy)benzofuran-6-carboxamide], the activation at 10 µM is 58.8%, the EC50 came to 7900 nM and the Emax turned out to be 81%.
As for `Cc1cc2c(Oc3ccc(S(C)(=O)=O)cc3)cc(C(=O)Nc3cnc(N(C)C)cn3)cc2o1` [Example 262, N-(5-(Dimethylamino)pyrazin-2-yl)-2-methyl-4-(4-(methylsulfonyl)-phenoxy)-benzofuran-6-carboxamide], the activation at 10 µM turned out to be 151%, the EC50 was 780 nM and the Emax was 137%.
As to `COc1cnc(NC(=O)c2cc(Oc3ccc(S(C)(=O)=O)cc3)c3cc(C)oc3c2)cn1` [Example 263, N-(5-methoxypyrazin-2-yl)-2-methyl-4-(4-(methylsulfonyl)-phenoxy)-benzofuran-6-carboxamide], the activation at 10 µM turned out to be 157%, the EC50 was determined as 840 nM and the Emax worked out at 146%.
On to `COC(=O)c1ccc(NC(=O)c2cc(Oc3ccc(S(C)(=O)=O)cc3)c3cc(C)oc3c2)nc1` [Example 264, Methyl 6-(2-methyl-4-(4-(methylsulfonyl)phenoxy)benzofuran-6-carboxamido)nicotinate], for which the activation at 10 µM came to 80.5%, the EC50 worked out at 1300 nM and the Emax turned out to be 79%.
Take `CCc1ccc(NC(=O)c2cc(Oc3ccc(S(C)(=O)=O)cc3)c3cc(C)oc3c2)nc1` [Example 265, N-(5-Ethylpyridin-2-yl)-2-methyl-4-(4-(methylsulfonyl)-phenoxy)benzofuran-6-carboxamide]: the activation at 10 µM was determined as 94.2%, the concentration giving a half-maximal response (EC50) stood at 1700 nM and the Emax came to 74%.
Turning to `Cc1cc2c(Oc3ccc(S(C)(=O)=O)cc3)cc(C(=O)Nc3ccc(CO)cn3)cc2o1` [Example 266, N-(5-(Hydroxymethyl)pyridin-2-yl)-2-methyl-4-(4-(methylsulfonyl)-phenoxy)-benzofuran-6-carboxamide], the activation at 10 µM was determined as 81.4%, the 50% effective concentration (EC50) was 1000 nM and the Emax came out at 91%.
Taken in the same sequence, the figures for `Cc1cc2c(Oc3ccc(S(C)(=O)=O)cc3)cc(C(=O)Nc3cnn(C)n3)cc2o1` [Example 267, 2-Methyl-N-(2-methyl-2H-1,2,3-triazol-4-yl)-4-(4-(methylsulfonyl)phenoxy)-benzofuran-6-carboxamide] were 145%, 1700 nM and 165%.
For the compound `Cc1cc2c(Oc3ccc(S(C)(=O)=O)cc3)cc(C(=O)Nc3cccc(CO)n3)cc2o1` [Example 268, N-(6-(Hydroxymethyl)pyridin-2-yl)-2-methyl-4-(4-(methylsulfonyl)phenoxy)-benzofuran-6-carboxamide], the activation at 10 µM was determined as 6.4% and the concentration giving a half-maximal response (EC50) is over 10000 nM.
With `Cc1cc2c(Oc3ccc(S(C)(=O)=O)cc3)cc(C(=O)Nc3cccc(C(C)O)n3)cc2o1` (centres unmarked) [Example 269, N-(6-(1-Hydroxyethyl)pyridin-2-yl)-2-methyl-4-(4-(methylsulfonyl)phenoxy)-benzofuran-6-carboxamide], the activation at 10 µM was determined as 34.8%, the half-maximal effective concentration (EC50) is 7000 nM and the Emax was 59%.
Turning to `CCOc1ccc(NC(=O)c2cc(Oc3ccc(S(C)(=O)=O)cc3)c3cc(C)oc3c2)nc1` [Example 270, N-(5-ethoxypyridin-2-yl)-2-methyl-4-(4-(methylsulfonyl)-phenoxy)benzofuran-6-carboxamide], the activation at 10 µM was 98.2%, the EC50 came out at 7100 nM and the Emax worked out at 139%.
Taken in the same sequence, the figures for `Cc1cc2c(Oc3ccc(S(C)(=O)=O)cc3)cc(C(=O)Nc3ccn(C)n3)cc2o1` [Example 271, 4-(4-(Methylsulfonyl)phenoxy)-2-methyl-N-(1-methyl-1H-pyrazol-3-yl)benzofuran-6-carboxamide] were 148%, 1300 nM and 184%.
Taken in the same sequence, the figures for `Cc1cc2c(Oc3ccc(C(=O)N(C)C)c(F)c3)cc(C(=O)Nc3ccn(C)n3)cc2o1` [Example 272, 4-(4-(Dimethylcarbamoyl)-3-fluorophenoxy)-2-methyl-N-(1-methyl-1H-pyrazol-3-yl)benzofuran-6-carboxamide] were 49.6%, 310 nM and 51%.
As for `Cc1ccc(NC(=O)c2cc(Oc3ccc(C(=O)N(C)C)c(F)c3)c3cc(C)oc3c2)nc1` [Example 273, 4-(4-(Dimethylcarbamoyl)-3-fluorophenoxy)-2-methyl-N-(5-methylpyridin-2-yl)benzofuran-6-carboxamide], the activation at 10 µM is 12.7%.
Consider `CCc1cc2c(Oc3ccc(S(C)(=O)=O)cc3)cc(C(=O)Nc3ccc(C)cn3)cc2o1` [Example 274, 2-Ethyl-N-(5-methylpyridin-2-yl)-4-[4-(methylsulfonyl)-phenoxy]-1-benzofuran-6-carboxamide], for which the activation at 10 µM came out at 131%, the EC50 worked out at 2400 nM and the Emax is 121%.
Taken in the same sequence, the figures for `CCc1cc2c(Oc3ccc(S(C)(=O)=O)cc3)cc(C(=O)Nc3ccn(C)n3)cc2o1` [Example 275, 2-Ethyl-N-(1-methyl-1H-pyrazol-3-yl)-4-[4-(methylsulfonyl)-phenoxy]-1-benzofuran-carboxamide] were 211%, 2600 nM and 210%.

The values are drawn from patent publication US8119624B2, “Fused phenyl amido heterocyclic compounds” (Pfizer Inc., priority 2006, dated 2012).
